Read-outs that look alike come from different tables or passages of the source.
Key:
[1] = biological target: cdk2/cyclinE (Homo sapiens, UniProt P24941); assay: Cyclin-Dependent Kinase Assay cdk2/cyclinE; format: biochemical
[2] = biological target: cdk4/D (Homo sapiens, UniProt P11802); assay: Cyclin-Dependent Kinase 4 (cdk4) Assay; format: biochemical
[3] = biological target: T1, PDGF-β receptor tyrosine kinase (Mus musculus, UniProt P05622); assay: PDGF Receptor Tyrosine Kinase Assay; format: biochemical; conditions: glutamate-tyrosine co-polymer substrate, 50 µM ATP
T1 construct: amplify a fragment of DNA that codes for the intracellular tyrosine kinase domain; made in house; host or cells: SF9 insect cells (baculovirus); crude cell lysate used
T1 sequence (P05622 599-961 limits assumed): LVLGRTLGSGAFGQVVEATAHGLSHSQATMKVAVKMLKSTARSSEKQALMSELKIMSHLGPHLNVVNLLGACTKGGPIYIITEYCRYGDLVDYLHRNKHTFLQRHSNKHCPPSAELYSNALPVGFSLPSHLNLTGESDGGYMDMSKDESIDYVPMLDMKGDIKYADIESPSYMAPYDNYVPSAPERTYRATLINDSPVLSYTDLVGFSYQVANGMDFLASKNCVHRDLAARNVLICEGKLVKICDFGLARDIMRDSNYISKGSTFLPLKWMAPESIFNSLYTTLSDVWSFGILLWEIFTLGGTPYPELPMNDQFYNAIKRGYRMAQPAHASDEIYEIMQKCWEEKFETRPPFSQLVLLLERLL
Excerpt: PDGF and FGF Receptor Tyrosine Kinase Assays
Full-length cDNAs for the mouse PDGF-β and human FGF-1 (flg) receptor tyrosine kinases were obtained from J. Escobedo and prepared as described in J. Biol. Chem., 1991;262:1482-1487. PCR primers were designed to amplify a fragment of DNA that codes for the intracellular tyrosine kinase domain. The fragment was inserted into a baculovirus vector, cotransfected with AcMNPV DNA, and the recombinant virus isolated. SF9 insect cells were infected with the virus to overexpress the protein, and the cell lysate was used for the assay. Assays were performed in 96-well plates (100 µL/incubation/well), and conditions were optimized to measure the incorporation of ^32P from γ^32P-ATP into a glutamate-tyrosine co-polymer substrate. Briefly, to each well was added 82.5 µL of incubation buffer containing 25 mM Hepes (pH 7.0), 150 mM NaCl, 0.1% Triton X-100, 0.2 mM PMSF, 0.2 mM Na3VO4, 10 mM MnCl2, and 750 µg/mL of Poly (4:1) glutamate-tyrosine followed by […] of inhibitor and 5 µL of enzyme lysate (7.5 µg/µL FGF-TK or 6.0 µg/µL PDGF-TK) to initiate the reaction. Following a 10 minute incubation at 25°C, […] of γ^32P-ATP (0.4 µCi plus 50 µM ATP) was added to each well, and samples were incubated for an additional 10 minutes at 25°C. The reaction was terminated by the addition of 100 µL of 30% trichloroacetic acid (TCA) containing 20 mM sodium pyrophosphate and precipitation of material onto glass fiber mats (Wallac). Filters were washed three times with 15% TCA containing 100 mM sodium pyrophosphate, and the radioactivity retained on the filters counted in a Wallac 1250 Betaplate reader. Nonspecific activity was defined as radioactivity retained on the filters following incubation of samples with buffer alone (no enzyme). Specific enzymatic activity (enzyme plus buffer) was defined as total activity minus nonspecific activity. […]

[4] = biological target: cdc2/cyclinB (Homo sapiens, UniProt P06493); assay: Cyclin-Dependent Kinase Assay cdc2/cyclinB; format: biochemical
Chain of cdc2/cyclinB (P06493 whole entry): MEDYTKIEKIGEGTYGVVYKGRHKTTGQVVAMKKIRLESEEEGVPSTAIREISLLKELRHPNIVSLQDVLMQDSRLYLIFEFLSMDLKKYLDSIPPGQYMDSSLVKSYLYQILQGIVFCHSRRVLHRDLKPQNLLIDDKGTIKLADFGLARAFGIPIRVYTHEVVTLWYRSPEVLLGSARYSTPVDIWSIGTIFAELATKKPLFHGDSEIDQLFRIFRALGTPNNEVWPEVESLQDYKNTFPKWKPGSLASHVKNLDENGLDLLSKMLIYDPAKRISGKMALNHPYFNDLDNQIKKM
Chain of cdc2/cyclinB (P14635 whole entry, further chain): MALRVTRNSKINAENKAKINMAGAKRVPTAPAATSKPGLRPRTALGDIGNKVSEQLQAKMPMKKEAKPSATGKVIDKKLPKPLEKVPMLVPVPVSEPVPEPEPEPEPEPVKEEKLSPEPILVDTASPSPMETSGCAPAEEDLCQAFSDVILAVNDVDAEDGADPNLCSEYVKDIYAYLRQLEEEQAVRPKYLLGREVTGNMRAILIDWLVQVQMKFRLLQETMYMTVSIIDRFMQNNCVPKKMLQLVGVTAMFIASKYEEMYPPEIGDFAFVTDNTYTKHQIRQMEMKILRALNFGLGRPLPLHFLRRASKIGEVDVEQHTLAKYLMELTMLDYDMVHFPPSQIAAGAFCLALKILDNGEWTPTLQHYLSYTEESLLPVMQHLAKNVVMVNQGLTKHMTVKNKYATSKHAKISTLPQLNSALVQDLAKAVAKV

[5] = biological target: T2, c-Src (Homo sapiens, UniProt P12931); assay: c-Src protein kinase assay; format: biochemical; conditions: poly GluTyr substrate, 5 µM ATP
T2 construct: made in house; host or cells: baculovirus infected insect cells
T2 sequence (P12931 whole entry): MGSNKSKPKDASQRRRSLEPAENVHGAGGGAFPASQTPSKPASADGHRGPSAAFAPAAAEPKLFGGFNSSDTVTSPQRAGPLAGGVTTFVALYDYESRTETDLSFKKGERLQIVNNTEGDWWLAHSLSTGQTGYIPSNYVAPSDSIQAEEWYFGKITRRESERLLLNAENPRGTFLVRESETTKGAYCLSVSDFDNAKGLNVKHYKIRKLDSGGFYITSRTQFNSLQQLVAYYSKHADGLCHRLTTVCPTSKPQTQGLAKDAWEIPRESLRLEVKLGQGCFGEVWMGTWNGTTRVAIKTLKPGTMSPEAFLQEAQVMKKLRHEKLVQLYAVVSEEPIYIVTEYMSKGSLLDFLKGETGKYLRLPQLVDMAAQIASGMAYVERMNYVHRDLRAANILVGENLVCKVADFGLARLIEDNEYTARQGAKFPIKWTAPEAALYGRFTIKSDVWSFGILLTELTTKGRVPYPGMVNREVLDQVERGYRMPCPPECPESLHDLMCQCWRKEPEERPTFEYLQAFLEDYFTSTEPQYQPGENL
Description: The assay was carried out as follows: c-Src kinase was purified from baculovirus infected insect cell lysates using an antipeptide monoclonal antibody directed against the N-terminal amino acids (amino acids 2-17) of c-Src. The antibody, covalently linked to 0.65 µm latex beads, was added to a suspension of insect cell lysis buffer comprised of 150 mM NaCl, 50 mM Tris pH 7.5, 1 mM DTT, 1% NP-40, 2 mM EGTA, 1 mM sodium vanadate, 1 mM PMSF, 1 µg/mL each of leupeptin, pepstatin, and aprotinin. Insect cell lysate containing c-Src protein was incubated with these beads for 3 to 4 hours at 4°C with rotation. At the end of the lysate incubation, the beads were rinsed three times in lysis buffer, resuspended in lysis buffer containing 10% glycerol, and frozen. These latex beads were thawed, rinsed three times in assay buffer (40 mM Tris, pH 7.5, […]) and suspended in the same buffer. In a Millipore 96-well plate with a 0.65 µm polyvinylidine membrane bottom were added the reaction components: 10 µL c-Src beads, 10 µL of 2.5 mg/mL poly GluTyr substrate, 5 µM ATP containing 0.2 µCi labeled ^32P-ATP, 5 µL DMSO containing inhibitors or as a solvent control, and buffer to make the final volume 125 µL. The reaction was started at room temperature by addition of the ATP and quenched 10 minutes later by the addition of 125 µL of 30% TCA, 0.1 M sodium pyrophosphate for 5 minutes on ice. […] The filters were then punched, counted in a liquid scintillation counter, and the data examined for inhibitory activity in comparison to a known inhibitor such as erbstatin. […]

[6] = biological target: T3, FGF-1 (flg) receptor tyrosine kinase (Homo sapiens, UniProt P11362); assay: FGF Receptor Tyrosine Kinase Assay; format: biochemical; conditions: glutamate-tyrosine co-polymer substrate, 50 µM ATP
T3 construct: amplify a fragment of DNA that codes for the intracellular tyrosine kinase domain; made in house; host or cells: SF9 insect cells (baculovirus); crude cell lysate used
T3 sequence (P11362 478-767 limits assumed): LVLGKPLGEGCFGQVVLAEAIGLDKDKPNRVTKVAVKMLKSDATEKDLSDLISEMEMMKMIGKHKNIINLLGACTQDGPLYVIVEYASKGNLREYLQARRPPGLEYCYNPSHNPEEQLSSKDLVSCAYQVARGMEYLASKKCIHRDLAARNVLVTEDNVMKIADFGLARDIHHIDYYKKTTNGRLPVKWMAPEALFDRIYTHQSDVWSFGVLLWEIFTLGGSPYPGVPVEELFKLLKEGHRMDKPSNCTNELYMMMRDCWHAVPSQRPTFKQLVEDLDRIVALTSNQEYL

[7] = biological target: cdk2/cyclinA (Homo sapiens, UniProt P24941); assay: Cyclin-Dependent Kinase Assay cdk2/cyclinA; format: biochemical
[8] = test system: human umbilical vein endothelial cells; assay: Human Umbilical Vein Endothelial Cell (HUVEC) Proliferation Assay; format: cell-based; conditions: 96 h, four days incubation, Sulphorhodamine B staining
Description: The compounds of Formula I are useful for treating cell proliferative disorders concerning angiogenesis and have been evaluated in a human umbilical vein endothelial cell in vitro assay. The assay described below is used to determine the anti-proliferative effects of the invention compounds on human umbilical vein endothelial cells, and the results are shown in Table 7.
Human Umbilical Vein Endothelial Cell (HUVEC) Proliferation Assay
Ninety-six well tissue culture plates are seeded with 100 µL of cells in all wells of rows A->G with row H remaining empty as a blank. HUVEC (Clonetics, San Diego, CA) are grown in endothelial growth medium (EGM media, Clonetics), containing 2% fetal bovine serum. The cell seed density for HUVEC cells is 20,000 per mL. C6 cells (ATCC Cat. No. CCL-107) are seeded at 6000 per mL in F10 medium (nutrient mixture Hemes) supplemented with 15% horse serum, 2.5% fetal bovine serum, and 6.0 mL 200 mM Glutamine per 600 mL medium. A90 cells (Suny, Buffalo, NY) are also seeded at 6000 per mL, but they are grown in RPMI 1640 (Roswell Park Memorial Institute) plus 10% fetal bovine serum. Unless noted otherwise, tissue culture media and components are from GIBCO. The cells are allowed to incubate at 37°C, 5% CO2, and 100% relative humidity for 16-24 hours.
Invention compounds are prepared by dissolving them in DMSO at a concentration of 5 mM, followed by dilution to 50 µM in EGM media. One hundred microliters of the compounds are applied to duplicate wells in column 1 of the previously prepared cell plates. Column 1 row H receives 100 µL of EGM media. The compounds in column 1 are diluted across the plates using serial twofold dilutions.
The plates are incubated as above for an additional four days before being stained with Sulphorhodamine B. Staining is performed as follows: The media is removed from the plates, and the cells are fixed using 10% trichloroacetic acid for 30 minutes at 4°C. Following fixation, the plates are washed five times with distilled water after which 100 µL of Sulphorhodamine B is added to each well. Sulphorhodamine B is dissolved in 1% acetic acid to a concentration of .075%. Following staining, excess stain is removed from the wells, and the plates are washed four times with 1% acetic acid. The plates are allowed to air dry before the bound dye is solubilized in 100 µL of 10 mM unbuffered TRIS base. Absorbance is measured on a 96 well plate reader at […] using a reference filter wavelength of 630 nm. […] Sulphorhodamine B and TRIS are from Sigma Chemical Company. Acetic acid and trichloroacetic acid are from Mallinckrodt AR.

[9] = retinoblastoma substrate, read-out: IC50 (µM) cdk2/E
[10] = 25 µM ATP, retinoblastoma substrate, read-out: IC50 (µM) cdk4/D
[11] = retinoblastoma substrate, read-out: IC50 (µM) cdkl/B
[12] = retinoblastoma substrate, read-out: IC50 (µM) cdk2/A

Chain of cdk4/D (P11802 whole entry): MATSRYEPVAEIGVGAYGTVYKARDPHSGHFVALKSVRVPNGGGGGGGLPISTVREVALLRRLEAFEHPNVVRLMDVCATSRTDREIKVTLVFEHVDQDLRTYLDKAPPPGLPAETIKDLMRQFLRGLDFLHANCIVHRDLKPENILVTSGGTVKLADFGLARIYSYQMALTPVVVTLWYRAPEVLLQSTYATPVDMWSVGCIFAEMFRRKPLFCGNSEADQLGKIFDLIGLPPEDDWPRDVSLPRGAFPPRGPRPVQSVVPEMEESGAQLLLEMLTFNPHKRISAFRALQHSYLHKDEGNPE
Chain of cdk4/D (P24385 whole entry, further chain): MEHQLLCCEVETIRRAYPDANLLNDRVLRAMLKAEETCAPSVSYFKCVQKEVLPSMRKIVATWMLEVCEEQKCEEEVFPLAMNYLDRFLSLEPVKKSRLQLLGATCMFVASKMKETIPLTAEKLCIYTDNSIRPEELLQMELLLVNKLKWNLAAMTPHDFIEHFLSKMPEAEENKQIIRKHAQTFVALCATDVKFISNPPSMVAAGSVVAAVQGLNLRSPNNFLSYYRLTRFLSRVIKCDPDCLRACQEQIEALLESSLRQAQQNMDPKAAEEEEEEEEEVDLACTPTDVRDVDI

| IC50 [1, 9] [µM] | IC50 [2, 10] [µM] | IC50 [4, 11] [µM] | IC50 [6] [µM] | IC50 [7, 12] [µM] | Structure (SMILES) | IC50 [3] [µM] | IC50 [5] [nM] | IC50 [1] [µM] | IC50 [2] [µM] | IC50 [4] [µM] | IC50 [7] [µM] | IC50 [8] [nM] |
| --- | --- | --- | --- | --- | --- | --- | --- | --- | --- | --- | --- | --- |
| 2.12 | 0.039 | 11.6 | 0.023 | 0.76 | CN1CCN(c2ccc(Nc3ncc4c(n3)N(C3CCCC3)C(=O)NC4)cc2)CC1 [Example 11, 1-Cyclopentyl-7-[4-(4-methylpiperazin-1-yl)phenylamino]-3,4-dihydropyrimido[4,5-d]pyrimidin-2(1H)-one] | 0.175 | 710 |  |  |  |  |  |
|  |  |  | 0.06 |  | CCN(CC)CCCCNc1ncc2c(n1)N(CC)C(=O)N(c1cc(OC)cc(OC)c1)C2 [Example 53, 7-(4-Diethylamino-butylamino)-3-(3,5-dimethoxy-phenyl)-1-ethyl-3,4-dihydro-pyrimido[4,5-d]pyrimidin-2(1H)-one] | 5 |  |  |  |  |  | 192 |

More lines, now with the values behind:

| Structure (SMILES) | IC50 [1, 9] [µM] | IC50 [2, 10] [µM] | IC50 [4, 11] [µM] | IC50 [6] [µM] | IC50 [7, 12] [µM] | IC50 [3] [µM] | IC50 [5] [nM] | IC50 [1] [µM] | IC50 [2] [µM] | IC50 [4] [µM] | IC50 [7] [µM] | IC50 [8] [nM] |
| --- | --- | --- | --- | --- | --- | --- | --- | --- | --- | --- | --- | --- |
| CN1CCN(c2ccc(Nc3ncc4cnc(=O)n(C5CCCC5)c4n3)cc2)CC1 [Example 32, 1-Cyclopentyl-7-[4-(4-methylpiperazin-1-yl)phenylamino]pyrimido-[4,5-d]pyrimidin-2(1H)-one] | 1.38 | 0.05 | 7.51 | 0.37 | 0.83 | 1.63 | 3950 |  |  |  |  |  |
| O=c1ncc2cnc(Nc3ccc(N4CCCC(O)C4)cc3)nc2n1C1CCCC1 (stereo not drawn) [Example 35, 1-Cyclopentyl-7-[4-(3-hydroxypiperidin-1-yl)phenylamino]pyrimido[4,5-d]-pyrimidin-2(1H)-one] |  |  |  | 3.49 |  | 2.8 | 4650 | 1.05 | 0.082 | 8.54 | 0.99 |  |
| O=c1ncc2cnc(Nc3ccc(N4CCC(CCN5CCOCC5)CC4)cc3)nc2n1C1CCCC1 [Example 39] |  |  |  |  |  | 3.76 | 3230 | 1.85 | 0.3 | 24.6 | 1.44 |  |
| CC(C)n1c(=O)ncc2cnc(Nc3ccc(N4CCC(N(C)C)CC4)cc3)nc21 [Example 41, 7-{4-[4-(Dimethylamino)piperidin-1-yl]phenylamino}-1-isopropyl-pyrimido[4,5-d]pyrimidin-2(1H)-one] |  |  |  | 11.7 |  | > 50 | 3060 | > 40 |  | > 40 | 14.8 |  |

Source: patent EP1801112A1, “Bicyclic pyrimidines and bicyclic 3,4-dihydropyrimidines as inhibitors of cellular proliferation” (Warner-Lambert Company LLC, priority 1998, dated 1999)
